In patent publication US10253107B2, “Use of endocytosis inhibitors and antibodies for cancer therapy” (THE UNIVERSITY OF QUEENSLAND, priority 2012, dated 2019):
pIC50: −log10 of the molar value. “Also recorded” adds a separate entry of the source. Where two headings read alike, the source gives them in different places.

Assays:
dynamin = conditions: cited from earlier work
[1] = system: EGFR endocytosis in A431 cells; assay: EGF-Alexa488 uptake immunofluorescence (ligand-induced EGFR endocytosis); assay type: cell-based, human; conditions: 15 min EGF-Alexa488 uptake
Experimental: (§1) FIG. 23 is a photographic representation showing example panels for correlation between inhibited EGFR endocytosis and MHC class I and class II status. (A) Immunofluorescence showing manipulation of EGFR trafficking using a dynamin inhibitor. A431 cells were serum-starved for 3 hours and then treated with different concentrations of dynasore (0, 60 and 100 μM) for 0.5 and 24 hours. 15 minutes EGF-Alexa488 (100 ng/mL) uptakes were performed to monitor the trafficking of the ligand bound EGFRs (in green). The nuclei are shown in blue. (B) immunofluorescence showing changes in MHC class I and class II distributions caused by altered EGFR trafficking. A431 cells were treated with different concentrations of dynasore (0, 60 and 100 μM) for 0.5 hours, followed by fixation and permeabilization. MHC class I and class II were then labeled with primary antibodies PE-HLA-ABC and PE-HLA-DR, respectively, followed by secondary antibody labeling (Alexa 594). MHC I and II are shown in red while the nuclei are shown in blue.
FIG. 29 is a photographic representation showing Dyngo4a inhibition of EGFR endocytosis. […] Immunofluorescence was conducted to confirm the manipulation of EGFR trafficking using Dyngo4a. A431 cells were serum-starved for 3 hours and then treated with different concentrations of (A) Dyngo4a (0 and 30 μM) for 30 min. […] The nuclei are shown in blue. […]

KJD cells [2] = assay: Immunofluorescence of cetuximab-EGFR trafficking, KJD; assay type: cell-based, human; conditions: incubation with Dyngo4a
Experimental: FIG. 28 is a photographic and graphical representation of a multi-parametric FACS analysis showing that manipulation of EGFR trafficking with dynamin inhibitors results in improved ADCC in cetuximab-insensitive cells. (A) Immunofluorescence imaging of cetuximab trafficking status in KJD cells. […] 7-AAD was added at the end of the 4-hour assay to label dead cells prior to FACS analysis. (B) Gating strategies used for the assessment of specific target cell death. FITC indicates CFSE while PerCP-Cy5.5 indicates 7-AAD. The dead target cells appear in the upper right quadrant, CFSE painted and 7-AAD positive. (C.1) KJD cell death under different conditions. (C.2) The percentage of specific KJD cell death was calculated. Data shown are an average of 3 experiments+/−SEM by Two-Way ANOVA with Bonferroni post test. ****: P≤0.0001; ***: P≤0.001; **: P≤0.01; *: P≤0.05. ns: no significance.
(§2) A431 cells were seeded on coverslips in 12-well plates and incubated overnight to reach 80% confluence. […] 30 μM dyngo4a was added at given time points as described in figure legends. The cells were then washed three times in ice cold PBS and fixed in 4% PFA/PBS for 30 minutes, followed by permeabilization in 0.1% TritonX/PBS (PBTX) for 20 minutes. […] The coverslips were mounted on slides in Prolong Gold (Life technologies). Images were acquired using a Zeiss 510 Meta confocal with a 63× objective.

PBMC = assay: MTS/MTT toxicity of dynamin inhibitors to PBMC; assay type: cell-based; conditions: for toxicity to PBMC: MTS/MTT, single agent
Experimental: Dyngo4a (0 and 30 μM) was added at the end of the incubation. 10% Triton was added to A431 cells after 24-hour incubation with PBMCs for cell death control. The ADCC effects were measured by MTS assay. The cell viability was presented as OD values at 490 nm. The average of OD values released from background was subtracted from effector cell controls (A-II) and target/effector tests (A-III).
(§3) FIG. 30 is a graphical representation of a multi-parametric FACS analysis showing that manipulation of EGFR trafficking with dynamin inhibitors, Dyngo4a and Pyrimidyn-7, results in enhanced ADCC in cetuximab-sensitive and insensitive cells. cetuximab-dependent ADCC assays were performed essentially according to the procedures outlined in FIGS. 27 and 28. […] (C) Percentage of specific KJD cell death is shown in the presence of dynamin inhibitors only. […] (E) An MTS assay was conducted in the absence of PBMC to assess toxicity of compounds in the absence of ADCC. […] Triton X100 is added as a control for maximum cell death. (F) An MTS assay was conducted in the absence of PBMC to assess toxicity of compounds in the absence of ADCC. […] Triton X100 is added as a control for maximum cell death. (G) An MTS assay was conducted to assess possible toxicity of dynamin inhibitors to PBMC cells. […] Triton X100 is added as a control for maximum cell death.
(§4) Compounds Dyngo4a and Pyrimidyn-7 were tested in both multi-variant FACS analysis assay as described in Example 4 and by MTT assay. In particular, compounds were tested for improvement of cetuximab-dependent ADCC against cetuximab-sensitive A431 cells and cetuximab-resistant KJD cells and for single agent toxicity.

A431 cells [3] = assay: Immunofluorescence of cetuximab-EGFR internalization, A431; assay type: cell-based, human; conditions: 4-hour time-course, Dyngo4a added
Experimental: as §2

KJD cells [4] = assay: MTS/MTT toxicity assay in the absence of PBMC, KJD; assay type: cell-based; conditions: absence of PBMC/ADCC, single agent or with cetuximab
Experimental: as §3, §4

A431 cells [5] = assay: Flow cytometry-based ADCC assay on A431 cells; assay type: cell-based, human; conditions: FACS; for effect of dynamin inhibitor on cetuximab-dependent ADCC of A431 cells: inhibitor + cetuximab + PBMC
Experimental: Flow cytometry was performed on triplicate tubes per treatment. Target cells were harvested and labeled with 0.5 μM CFSE (Life technologies) for 10 minutes, followed by washing to remove excess dye. […] 30 μM Dyngo4a was added at given time points as described in figure legends. After the incubation, 5 ul of 7-AAD (BD Pharmingen) was added into each tube to indicate the target cells that were killed. Samples were analyzed by flow cytometry (BD FACSCanto). The percentage of specific target cell death was calculated using the following formula:

A431 cells [6] = assay: Cetuximab mediated ADCC MTS assay; assay type: cell-based, human; conditions: Dyngo4a 30 μM + cetuximab 60 μg/mL + PBMC, vs cetuximab single treatment
Experimental: MTS assays were performed to measure absorbance at 490 nm. The cell viability is presented as the percentage of untreated viable cells. […] (B-I) MTS assays were performed to measure absorbance at 490 nm. (B-II) The target cell viability is presented as the percentage of untreated viable cells and calculated following the formula: % of untreated cells=(experimental OD−PBMC OD)/(A431 maximum OD−medium OD)×100%
Target cells (A431, number=2,500 per well) were seeded in 96-well round bottom plates and allowed to settle down for 2 hours. […] After 24 hours incubation, 20 μL MTS reagent was added into each well and incubated at 37° C. in 5% CO2 for 2 hours. The optical density (OD value) was read at 490 nm by a microplate spectrophotometer.

A431 cells [7] = assay: MTS/MTT toxicity assay in the absence of PBMC, A431; assay type: cell-based
Experimental: as §3, §4

KJD cells [8] = assay: Flow cytometry-based ADCC assay on KJD cells; assay type: cell-based, human; conditions: for effect of dynamin inhibitor on cetuximab-dependent ADCC of KJD cells: inhibitor + cetuximab + PBMC
Experimental: Flow cytometry was performed on triplicate tubes per treatment. Target cells were harvested and labeled with 0.5 μM CFSE (Life technologies) for 10 minutes, followed by washing to remove excess dye. […] 30 μM Dyngo4a was added at given time points as described in figure legends. After the incubation, 5 ul of 7-AAD (BD Pharmingen) was added into each tube to indicate the target cells that were killed. Samples were analyzed by flow cytometry (BD FACSCanto).

HeLa cells [9] = conditions: dose dependent, previous study (23), read-out: IC50 of dynasore mediated endocytosis inhibition; cited from earlier work
HeLa cells [10] = assay: Dynasore 24 hour treatment, HeLa cells; assay type: cell-based
A431 cells [11] = assay: MHC class I and class II immunofluorescence in A431 cells; assay type: cell-based, human
Experimental: as §1

A431 cells [12] = assay: Dynasore 24 hour treatment, A431 cells; assay type: cell-based, human
Experimental: as §1

[13] = A431, dynasore 0, 60, 100 μM, 0.5 hours

For `N#C/C(=C\c1ccc(O)c(O)c1)C(=O)NCCCNC(=O)/C(C#N)=C/c1ccc(O)c(O)c1` [Bis-T-22, 2-cyano-N-{3-[2-cyano-3-(3,4-dihydroxyphenyl)-acryloylamino]-propyl}-3-(3-,4-dihydroxyphenyl)-acrylamide], the “basal dynamin GTPase activity” value (dynamin; absence of PS liposomes, dynamin rings) is listed as “stimulates basal dynamin GTPase activity” and the “inhibition of helical dynamin” value (dynamin; dynamin activated by phosphatidylserine (PS) liposomes) is listed as “potent in vitro inhibitor of dynamin”.
With `O=C(N/N=C/c1cc(O)c(O)cc1O)c1cc2ccccc2cc1O` [Dyngo-4a] the “ligand-induced EGFR endocytosis” value [1] was “has an inhibitory effect on the ligand-induced EGFR endocytosis”, the “plasma membrane expression of EGFR” value (KJD cells [2]) was “increased the plasma membrane expression of EGFR” and the “cell viability of PBMCs (effector cells)” value (PBMC; Dyngo4a alone and with cetuximab, MTS, vs negative and 10% Triton controls) was “did not cause large cell viability reduction in PBMCs”. For the same compound, the “toxicity to PBMC” value (PBMC) was “no toxicity as a single agent; also recorded: no significant toxicity”, the “surface and internalized levels of cetuximab” value (A431 cells [3]) was “increases surface levels of cetuximab and decreases internalized levels” and the “toxicity to KJD cells” value (KJD cells [4]) was “no toxicity as a single agent; also recorded: no significant toxicity on KJD cells”. The “effect of Dyngo4a on Herceptin-dependent ADCC of A431 cells” value (A431 cells [5]; Dyngo4a + Herceptin + PBMC) was “enhance both cetuximab-dependent and Herceptin-dependent ADCC”, the “effect of dynamin inhibitor on cetuximab-dependent ADCC of A431 cells” value (A431 cells [5]) was “increased level of cetuximab-induced ADCC; also recorded: improve cetuximab-dependent ADCC; also recorded: enhance both cetuximab-dependent and Herceptin-dependent ADCC” and the “cetuximab mediated ADCC in presence of dynamin inhibitor (cell viability, MTS)” value (A431 cells [6]) was “cells lost more viability”. For the same compound, the “toxicity to A431 cells” value (A431 cells [7]) was “no toxicity as a single agent”, the “toxicity to A431 cells” value (A431 cells [7]; human) was “no significant toxicity on A431 cells” and the “cetuximab-induced ADCC with Dyngo4a, KJD cell killing” value (KJD cells [8]; Dyngo4a 30 μM + cetuximab 60 μg/mL + PBMC, 4 hours) was “greater than 40%”. For the same compound, the “effect of Dyngo4a on Herceptin-dependent ADCC of KJD cells” value (KJD cells [8]; Dyngo4a + Herceptin + PBMC, FACS) was “enhance Herceptin-dependent ADCC of KJD cells even more so”, the “tumor cell killing by inhibitor alone” value (KJD cells [8]; Dyngo4a alone, without cetuximab) was “did not kill tumor cells” and the “effect of dynamin inhibitor on cetuximab-dependent ADCC of KJD cells” value (KJD cells [8]; FACS) was “improve cetuximab-dependent ADCC; also recorded: enhance both cetuximab-dependent and Herceptin-dependent ADCC”.
For `O=C(N/N=C/c1ccc(O)c(O)c1)c1cc2ccccc2cc1O` [Dynasore, 3-hydroxynaphthalene-2-carboxylic acid (3,4-dihydroxybenzylidene) hydrazide], the pIC50 (HeLa cells [9]) is listed as ~4.82, the “cell morphology after 24 hours dynasore” value (HeLa cells [10]) is listed as “appeared apoptotic or to have cytokinetic defects” and the “ligand-induced EGFR endocytosis” value [1] is listed as “successfully functioned as an endocytosis inhibitor”. For the same compound, the “plasma membrane levels of MHCI” value (A431 cells [11]; A431, EGF stimulation coupled with dynasore inhibition) was “no longer detectable”, the MHCI signal (A431 cells [11]; [13]) was “increasing MHCI signal” and the MHCII signal (A431 cells [11]; [13]) was “decrease in MHCII signal”. The “cell morphology after 24 hours dynasore” value (A431 cells [12]) was “cellular nuclear condensation”.
With `CCCCCCCCCCCCNc1cc(C)nc(NCCN(C)C)n1` [Pyrimidyn-7] the “toxicity to PBMC” value (PBMC) was “showed single agent toxicity; also recorded: shows toxicity”, the “toxicity to KJD cells” value (KJD cells [4]) was “showed single agent toxicity; also recorded: significant death of KJD cells” and the “effect of dynamin inhibitor on cetuximab-dependent ADCC of A431 cells” value (A431 cells [5]) was “improve cetuximab-dependent ADCC”. For the same compound, the “toxicity to A431 cells” value (A431 cells [7]; MTS/MTT, absence of PBMC/ADCC, single agent or with cetuximab) was “showed single agent toxicity; also recorded: significant death of A431 cells”, the “cell death by ADCC in the absence of cetuximab” value (KJD cells [8]; KJD cells (FIG. 30C), inhibitor only) was “Some increase in cell death” and the “effect of dynamin inhibitor on cetuximab-dependent ADCC of KJD cells” value (KJD cells [8]; FACS) was “improve cetuximab-dependent ADCC”.
